# Publication PMC5503534, “Stable aneuploid tumors cells are more sensitive to TTK inhibition than chromosomally unstable cell lines” (Oncotarget, 2017)
# Where two headings read alike, the source gives them in different places.
# Experiments:
# [1] = tested on: post-tetraploid HPT1 cells; experiment: Cell proliferation assay, post-tetraploid HPT1; assay type: cell-based, human; conditions: HPT1, five days
# Protocol: (§1) Cancer cell lines and hTERT-RPE1 retinal pigment epithelial cells were purchased from the American Type Culture Collection (ATCC) (Manassas, VA, U.S.A.) from 2011 to 2014 [41] and cultured in ATCC-recommended media. All experiments were carried out within nine passages of the original vials from ATCC who authenticated the cancer cell lines by short tandem repeat analysis. We verified the mutant status of seven frequently mutated cancer genes (i.e., BRAF, CDKN2A, CTNNB1, EGFR, KRAS, PIK3CA and TP53) by full exome or targeted sequencing. Sequencing results were compared to COSMIC version 75 of the Genomics of Drug Sensitivity in Cancer data base and provided additional authentication of the identity of the cell lines. The isolation and characterization of post-tetraploid clones from HCT 116 has been described previously. The mutation status of the CDKN2A, CTNNB1, KRAS and PIK3CA genes were confirmed by sequence analysis in both the HCT 116 parental cell line and post-tetraploid clones. All experiments were carried out within nine passages of the original cell stocks that were transferred from the Max Planck Institute of Biochemistry (Martinsried, Germany) to Netherlands Translational Research Center.
# (§2) Cell proliferation assays were carried out as described using ATPlite 1step™ (Perkin Elmer, Groningen, The Netherlands). Exposure time was 72 or 120 hours as indicated in the Legends to the Figures. Percentage growth was calculated, relative to the growth of unexposed cells, and relative IC50s were fitted using a four-parameter logistics curve (XLfit 5.3, IDBS). For Figure 4A and 7 dose response curves were redrawn in Prism. To compare the inhibitory potency of compounds in proliferation assays with HCT 116 parental and tetraploid clones, pIC50 (−^10logIC50) values were compared in three independent experiments. A two-tailed Student's t-test was performed to determine whether differences in sensitivity (ΔpIC50) were statistically significant. Caspase 3/7 activity of cancer cells was measured using Caspase-Glo 3/7 Assay kit (cat no. G8093, Promega, Madison USA). Viability of T-ALL cell samples was determined using ATPlite and exposure of 72 hours as described previously.
# [2] = tested on: post-tetraploid HPT4 cells; experiment: Cell proliferation assay, post-tetraploid HPT4; assay type: cell-based, human; conditions: HPT4, five days
# Protocol: as §1, §2
# [3] = tested on: OVCAR-3 ovary adenocarcinoma cell line; experiment: Cell proliferation assay (ATPlite), OVCAR-3; assay type: cell-based, human; conditions: Homo sapiens, 120 h, 5 day proliferation assay
# Protocol: as §2
# [4] = tested on: HCT 116 vs HPT1, -2 and -4; experiment: Drug sensitivity analysis, HCT116 diploid versus tetraploids; assay type: cell-based, human
# Protocol: as §2
# [5] = tested on: MG-63 osteosarcoma cell line; experiment: Cell proliferation assay (ATPlite), MG-63; assay type: cell-based, human; conditions: Homo sapiens, 120 h, 5 day proliferation assay
# Protocol: as §2
# TTK kinase domain = target: T1, TTK kinase domain (Homo sapiens, UniProt P33981); experiment: Surface plasmon resonance binding kinetics, TTK; conditions: SPR, geometric average
# T1 construct: using bacterially expressed TTK kinase domain and Sf9 insect cell-expressed Aurora B; purchased Carna Biosciences, Inc., Kobe, Japan
# T1 sequence (P33981 525-791 limits assumed): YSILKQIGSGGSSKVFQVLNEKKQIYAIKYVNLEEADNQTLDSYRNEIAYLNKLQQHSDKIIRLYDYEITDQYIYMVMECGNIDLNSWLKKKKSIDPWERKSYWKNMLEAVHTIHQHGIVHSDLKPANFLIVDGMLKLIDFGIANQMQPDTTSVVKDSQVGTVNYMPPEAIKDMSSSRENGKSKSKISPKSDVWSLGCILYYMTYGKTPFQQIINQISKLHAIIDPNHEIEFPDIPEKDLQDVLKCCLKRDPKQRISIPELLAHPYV
# Source text: (§3) Originally, the compound was identified in a phenotypic screen for molecules that can induce stem-cell like phenotypes. Later this property was attributed to its ability to inhibit the mitotic kinase Aurora B [39].
# [6] = tested on: 66 cancer cell lines (44 cell lines); set-up: method as in earlier work; conditions: 5 days; geometric average in 66 cancer cell lines; cited from earlier work
# [7] = tested on: HCT 116 colon carcinoma cell line; experiment: Cell proliferation assay (ATPlite), HCT 116; assay type: cell-based, human; conditions: for IC50: Homo sapiens, HCT-116, 120 h
# Protocol: as §2
# [8] = tested on: DoTc2 4510 cervix carcinoma cell line; experiment: Cell proliferation assay (ATPlite), DoTc2 4510; assay type: cell-based, human; conditions: Homo sapiens, 120 h, 5 day proliferation assay
# Protocol: as §2
# full-length Aurora B = target: T2, full-length Aurora B (Homo sapiens, UniProt Q96GD4); experiment: Surface plasmon resonance binding kinetics, Aurora B; conditions: SPR, geometric average
# T2 construct: to the kinase domain of TTK and full-length Aurora B; purchased Carna Biosciences, Inc., Kobe, Japan; host or cells: Sf9 insect cells
# T2 sequence (Q96GD4 whole entry, the tested form may be a part): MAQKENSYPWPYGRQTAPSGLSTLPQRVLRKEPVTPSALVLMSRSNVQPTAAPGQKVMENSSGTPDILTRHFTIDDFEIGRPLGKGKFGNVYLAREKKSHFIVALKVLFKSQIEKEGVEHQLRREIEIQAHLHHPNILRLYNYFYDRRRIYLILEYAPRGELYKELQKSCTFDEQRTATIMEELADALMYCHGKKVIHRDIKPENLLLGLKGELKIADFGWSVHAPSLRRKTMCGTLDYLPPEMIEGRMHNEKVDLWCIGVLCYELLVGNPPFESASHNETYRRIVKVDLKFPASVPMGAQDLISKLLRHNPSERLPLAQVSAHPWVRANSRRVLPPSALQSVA
# Source text: as §3
# [9] = tested on: post-tetraploid HPT2 cells; experiment: Cell proliferation assay, post-tetraploid HPT2; assay type: cell-based, human; conditions: HPT2, five days
# Protocol: as §1, §2
# [10] = tested on: A-172 glioblastoma cell line; experiment: Cell proliferation assay (ATPlite), A-172; assay type: cell-based, human; conditions: Homo sapiens, 120 h, 5 day proliferation assay
# Protocol: as §2
# [11] = tested on: patient-derived colorectal carcinoma organoids; experiment: Organoids drug sensitivity and viability assay; assay type: cell-based, human; conditions: Homo sapiens
# Protocol: The establishment and characterization of the human colon cancer organoids has been described. The organoids were cultured in drops of Geltrex LDEV-Free Reduced Growth Factor Basement Membrane Matrix (Gibco, cat no. A1413202) in DMEM/F12 medium (Thermo), supplemented with 1% (v/v) penicillin/streptomycin (Gibco), 1% Hepes buffer, pH7.5, 1% L-glutamine (Gibco), 1 μg/mL R-spondin (Sigma), 100 ng/mL Noggin (Peprotech), B27 vitamin A-free (Invitrogen, cat no. 12587010), 1 mM n-acetyl cysteine (Sigma), 10 mM nicotinamide (Sigma), 50 ng/mL EGF (BD Biosciences), 500 nM A83-01 (Tocris), 10 μM SB202190 (Sigma), 10 μM Y-27632 (Sigma) and 10 nM Prostaglandin E2 (Cayman). Medium was refreshed every four days and organoids were splitted by treatment with TryPLE Express (Gibco, cat. no. 12604013).
# Organoids were dissociated by TryPLE Express treatment and filtered using a 40 μm nylon cell strainer (Falcon). The organoids were re-suspended in Geltrex at a density of 250,000 cells/mL and seeded in the wells of 96-well plates (Corning, cat no. 3903) at 10 μl per well. Compounds were added four days after plating and 72 hours later viability was determined using Cell-Titer Glo 3D Cell Viability Assay (Promega, Madison USA). Experiments were performed in three biological replicates and technical triplicates were averaged per experiment.
# [12] = Homo sapiens, 120 h, geometric average of three experiments
structure (smiles),measurement,setting,value
c1nc2nc(Nc3ccc(N4CCOCC4)cc3)nc(NC3CCCCC3)c2[nH]1 [reversine],Efficacy (%),[1]; average of three experiments,58%
same,IC50,[1]; [12],208 nM
same,Efficacy (%),[2]; average of three experiments,33%
same,IC50,[2]; [12],159 nM
same,IC50,[3],441 nM
same,Δeff. (%),"[4]; HCT 116 vs HPT1, -2 and -4",−32%
same,Phenotype (efficacy),"[4]; HCT 116 vs HPT1, -2 and -4, based on % effect",resistant
same,Phenotype (potency),"[4]; HCT 116 vs HPT1, -2 and -4, 'resistant' indicates that tetraploids are resistant",sensitive
same,ΔpIC50,[4]; average log shift in sensitivity between parental and tetraploids,−0.08
same,IC50,[5],434 nM
same,kd,TTK kinase domain,8.86e-05 s⁻¹
same,IC50,[6],239 nM
same,Eff. (%),"[7]; HCT 116, five days, maximum inhibitory effect, average of three experiments",77%
same,IC50,"[7]; 5 day proliferation assay, HCT 116 (Suppl. Table 1)",175 nM
same,IC50,"[7]; HCT 116 near-diploid, five days, geometric average of three experiments (Suppl. Table 2A)",242 nM
same,IC50,[8],416 nM
same,kd,full-length Aurora B,0.00484 s⁻¹
same,Efficacy (%),[9]; average of three experiments,44%
same,IC50,[9]; [12],253 nM
same,IC50,[10],158 nM
same,IC50,"[11]; 72 h, organoid p14, three days, read-out: IC50",493 nM
same,IC50,"[11]; 72 h, organoid p14, three days, read-out: pIC50 (converted)",468 nM
same,IC50,"[11]; 72 h, organoid p18, three days, read-out: IC50",285 nM
same,IC50,"[11]; 72 h, organoid p18, three days, read-out: pIC50 (converted)",269 nM
same,IC50,"[11]; 72 h, organoid p28, three days, read-out: IC50",757 nM
same,IC50,"[11]; 72 h, organoid p28, three days, read-out: pIC50 (converted)",646 nM
same,IC50,"[11]; All organoids, geometric average, read-out: pIC50 (converted)",437 nM
